{"source": "patent US11192866B2", "about": "“Synthesis of tetracyclines and analogues thereof” (President and Fellows of Harvard College, priority 2004, dated 2021)", "system": "Gram-positive strains", "experiment": "Whole-cell antibacterial MIC assay (NCCLS serial dilution), Gram-positive strains", "assay_type": "cell-based", "settings": "each of the Gram-positive strains examined, including strains with resistance to tetracycline, methicillin, and vancomycin", "experimental": "The efficiencies of the synthetic sequences have allowed for the preparation of sufficient quantities of each tetracycline analog for antibacterial testing using standard serial-dilution techniques (5-20 mg amounts). Minimum inhibitory concentrations (MICs) are reported for each analog in whole-cell antimicrobial assays using five Gram-positive and five Gram-negative organisms (FIGS. 18A to 18C).\nWhole-cell antibacterial activity was determined according to methods recommended by the NCCLS (National Committee for Clinical Laboratory Standards. 2002. Methods for dilution antimicrobial susceptibility tests for bacteria that grow aerobically: approved standard-fifth edition. NCCLS document M100-S12. National Committee for Clinical Laboratory Standards. Wayne, Pa.; incorporated herein by reference). Test compounds were dissolved in dimethyl sulfoxide (DMSO) and the resulting solutions were diluted in water (1:10) to produce stock solutions with a final concentration of 256 μg tetracycline analog per mL. In a 96-well microtiter plate, 50-μL aliquots of stock solutions were diluted serially into cation-adjusted Mueller-Hinton broth (MHB; Becton-Dickinson, Cockeysville, Md.). Test organisms (50 μL aliquots of solutions […]) were then added to the appropriate wells of the microtiter plate. […] The MIC was the lowest concentration of compound determined to inhibit visible growth. […]"}
{"compound": "CN(C)[C@@H]1C(O)=C(C(N)=O)C(=O)[C@@]2(O)C(O)=C3C(=O)c4c(cc5ccccc5c4O)C[C@H]3C[C@@H]12", "note": "[pentacycline derivative 6]", "values": [{"measurement": "antibacterial activity compared with tetracycline", "result": "activity equal to or greater than tetracycline"}]}
